From patent publication US6458585B1, “Cytokine-free culture of dendritic cells” (Nexell Therapeutics Inc., priority 1996, dated 2002)

Legend:
adherent PBMNC = experiment: S100 immunohistochemistry of plastic adherent cells cultured with non-cytokine additives; assay type: cell-based, human; conditions: for percentage of S100+ cells: without GM-CSF added to additives
Method: Immunocytochemical staining: PBS (phosphate buffered saline) was made by dissolving 5 PBS tablets into 1000 ml millipore water. Cytospin slides were soaked in PBS. […] Slides were rinsed with PBS one time. Non-specific binding sites were blocked by incubating with normal serum matching source of secondary antibody (i.e. if secondary antibody is biotinylated goat-anti-mouse, used normal goat serum) at room temp. for 15 min. in a humidified environment. Excess serum was shaken from slides and placed 100 ul of primary antibody on slide, making sure cells are covered with liquid and incubated in humidified environment, room temp, for one hour. Negative control slides were incubated with normal serum for this hour. Slides were rinsed 3 times with PBS. Slides were incubated with biotinylated antibody reactive against the primary antibody (i.e. if primary antibody is mouse-anti-human, use a biotinylated goat-anti-mouse antibody) for 1 hour in humidity. Slides were rinsed 3 times with PBS. Slides were incubated with streptavidin-peroxidase, 2 drops/slide, for 30 min. in humidity. Slides were rinsed 3 times with PBS.
Chromagen solution was made with 5 ml millipore water+2 drops of chromagen buffer+1 drop of concentrated chromagen+1 drop of substrate, and 4-5 drops were added to each slide. […] Slides were counterstained with hematoxylin for about 5 min, or until cell nuclei were stained purple. Cells were rinsed with tap water and allowed to air dry. Slides were covered with crystal mount and oven dried at 80 degrees for 15 min. Slides were allowed to cool, then coversliped with mounting medium.
Enrichment and Culture of Adherent Cells Using Polystyrene Tissue Culture Plates: PBMNC were resuspended in culture media (X-VIVO 15™+10% autologous serum) at 2×10^6 cells/ml. Cells were placed into 48 well polystyrene tissue culture plates […] and incubated for 2 hours in a 5% CO2, ambient O2, 37° C. humidified incubator. Non-adherent cells were removed from the plates then wells were rinsed with X-VIVO 15™ containing no serum. Cells remaining in the wells were adherent cells. These cells were cultured by adding 2 ml of X-VIVO 15™ to each well plus GM-CSF and IL-4 at final concentrations of 50 ng/ml and 1000 U/ml or the following: cAMP at 0.5 mM, dibutyryl cAMP at 0.1 mM, NaF at 0.25 mM, theophylline at 0.5 mM, PGE at 0.1 mM, Vitamin D3 at 2.5 uM, Vitamin E at 0.1%, Retinoic Acid at 10^−6 M, PMA at 1 pM, Linoleic Acid at 5 ug/ml, or Ca^++ Ionophore at 10 mM. Furthermore, cells were also cultured with the above non-cytokine additives plus GM-CSF at 50 ng/ml. Cells were cultured in a 5% CO2, ambient O2, 37° C. humidified incubator for 7 days.
(§1) Cytospin slide preparation, Wright-Geimsa and immunohistochemical staining of the cultured cells were conducted as described in Example 1 and 2 above. Mixed lymphocyte reactions (MLR's) were setup using T cells (responders) and dendritic cell enriched cultures (stimulators) from bulk PBMNC cultures, as described above in Example 1.
Results: In the set of experiments using plastic adherent cells grown in polystyrene tissue culture plates, a Day 0 analysis of the cells was not performed. However, these cultures were analyzed for the presence of DC on days 4 and 7. Analysis perfomed were cell counts, viability via propidium iodide, morphology under Wright-Geimsa staining, and immunohistochemical staining using an anti-S100 antibody.

T cells = experiment: Allogeneic MLR with bulk PBMNC cultures grown with non-cytokine additives; assay type: cell-based, human
Method: MLR's were setup using T cells as responders and dendritic cell enriched cultures as antigen presenters. Sheep red blood cells were prepared and used to erythrocyte rosette T cells from a MNC preparation as described in “Current Protocols in Immunology”, John Wiley & Sons Inc, 1995. Vol. 2, 7.2.1-7.2.4. Erythrocyte+(E+ ) T cells were resuspended to 1×10^6 cells/ml in RPMI 1640/10% FCS. Dendritic cells were resuspended to 1×10^6 cells/ml in RPMI 1640/10% FCS and mitomycin C was added at 25 ug/ml to inhibit proliferation. The tubes were incubated at 37° C. for 30 min. then washed 3 times with PBS-CMF/1% HA. […] […] The appropriate control wells were also prepared. Plates were incubated for 4 or 5 days at 37° C.
Each well was pulsed with 1 uCi of ^3H-thymidine in RPMI 1640/10% FCS. Plates were incubated overnight at 37° C.
Plates were harvested onto glass fiber filter strips using a cell harvester. Discs were placed into scintillation vials containing scintillation cocktail and samples were counted using a beta radiation counter.
as §1
The functional capacity of cultured cells to induce T cell proliferation was measured in an allogeneic MLR. […] At the greatest ratio of 1:100, the differences in capacity to induce T cell proliferation is marginal between the GM-CSF/IL-4 cultured cells and the non-cytofine additive cultured cells.

CCCCC/C=C\C/C=C\CCCCCCCC(=O)O [Linoleic Acid]
% S100+ (adherent PBMNC; Day 4, with GM-CSF present): 12.00%
% S100+ (adherent PBMNC; Day 4, without GM-CSF): 20.00%
% S100+ (adherent PBMNC; Day 7, with GM-CSF present): 26.00%
% S100+ (adherent PBMNC; Day 7, without GM-CSF): 25.00%
percentage of S100+ cells (adherent PBMNC; day 4): 20%
percentage of S100+ cells (adherent PBMNC; day 7): next highest percentages
Allogeneic MLR. Increase Over Background Proliferation (T cells; Day 7, Cell Culture:T cell Ratio 1:1): 6.1
Allogeneic MLR. Increase Over Background Proliferation (T cells; Day 7, Cell Culture:T cell Ratio 1:10): 3.1
Allogeneic MLR. Increase Over Background Proliferation (T cells; Day 7, Cell Culture:T cell Ratio 1:100): 1.1
